Results as given in patent US20230183219A1, “CONDENSED SUBSTITUTED HYDROPYRROLES AS ANTAGONISTS OF THE MUSCARINIC ACETYLCHOLINE RECEPTOR M4” (Vanderbilt University, priority 2020, published 2023).

Biological target: T1, Human M4 (Homo sapiens, UniProt P08173)
T1 construct: Human or rat M4 cDNA, along with the chimeric G protein Gqi5, were transfected into Chinese hamster ovary (CHO-K1) cells; expressed in transfected cells; host or cells: CHO-K1 (Chinese hamster ovary, ATCC), stably co-expressing Gqi5
T1 sequence (P08173 1-479): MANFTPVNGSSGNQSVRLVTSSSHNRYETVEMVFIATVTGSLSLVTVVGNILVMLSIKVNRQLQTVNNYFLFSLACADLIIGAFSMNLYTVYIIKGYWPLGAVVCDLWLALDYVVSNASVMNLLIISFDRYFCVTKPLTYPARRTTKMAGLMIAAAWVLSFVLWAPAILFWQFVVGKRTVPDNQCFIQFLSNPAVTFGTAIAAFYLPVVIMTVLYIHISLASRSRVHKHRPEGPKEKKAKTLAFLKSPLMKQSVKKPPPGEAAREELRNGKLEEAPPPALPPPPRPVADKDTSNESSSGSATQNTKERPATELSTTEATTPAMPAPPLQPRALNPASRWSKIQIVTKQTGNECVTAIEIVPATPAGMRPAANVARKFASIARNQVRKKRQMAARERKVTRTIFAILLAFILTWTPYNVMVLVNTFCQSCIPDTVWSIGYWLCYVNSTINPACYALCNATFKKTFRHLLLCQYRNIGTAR
Assay: mAChR M4 cell-based functional assay (calcium flux, decrease of EC80 acetylcholine response)
Details: for remaining activity at 30 µM: % ACh maximum at 30 μM, read-out: Human M4 Emin; for IC50: M4/Gqi5/CHO-K1 cells, decrease of response to EC80 acetylcholine
Description: Human or rat M4 cDNA, along with the chimeric G protein Gqi5, were transfected into Chinese hamster ovary (CHO-K1) cells purchased from the American Type Culture Collection using Lipofectamine2000. M4/Gqi5/CHO cells were grown in Ham's F-12 medium containing 10% heat-inactivated fetal bovine serum (FBS), 20 mM HEPES, 500 μg/mL G418 sulfate, and 200 μg/mL Hygromycin B.
For high throughput measurement of agonist-evoked increases in intracellular calcium, CHO-K1 cells stably expressing muscarinic receptors were plated in growth medium lacking G418 and hygromycin at 15,000 cells/20 μL/well in Greiner 384-well black-walled, tissue culture (TC)-treated, clear-bottom plates (VWR). Cells were incubated overnight at 37° C. and 5% CO2. The next day, cells were washed using an ELX 405 (BioTek) with assay buffer; the final volume was then aspirated to 20 μL. Next, 20 μL of a 2.3 μM stock of Fluo-4/acetoxymethyl ester (Invitrogen, Carlsbad, Calif.), prepared as a 2.3 mM stock in DMSO and mixed in a 1:1 ratio with 10% (w/v) Pluronic F-127 and diluted in assay buffer, was added to the wells and the cell plates were incubated for 50 min at 37° C. and 5% CO2. Dye was removed by washing with the ELX 405 and the final volume was aspirated to 20 μL. Compound master plates were formatted in a 10 point concentration-response curve (CRC) format (1:3 dilutions) in 100% DMSO with a starting concentration of 10 or 1 mM using a BRAVO liquid handler (Agilent). Test compound CRCs were then transferred to daughter plates (240 nL) using the Echo acoustic plate reformatter (Labcyte, Sunnyvale, Calif.) and then diluted into assay buffer (40 μL) to a 2×stock using a Thermo Fisher Combi (Thermo Fisher Scientific, Waltham, Mass.).
Calcium flux was measured using the Functional Drug Screening System (FDSS) 6000 or 7000 (Hamamatsu Corporation, Tokyo, Japan) as an increase in the fluorescent static ratio. Compounds were applied to cells (20 μL, 2×) using the automated system of the FDSS at 2 seconds into the protocol and the data were collected at 1 Hz. At 143 s, 10 μL of an EC20 concentration of the muscarinic receptor agonist acetylcholine was added (5×), followed by the addition of 12 μL of an EC80 concentration of acetylcholine at the 268 s time point (5×). Agonist activity was analyzed as a concentration-dependent increase in calcium mobilization upon compound addition. Positive allosteric modulator activity was analyzed as a concentration-dependent increase in the EC20 acetylcholine response. Antagonist activity was analyzed as a concentration-dependent decrease in the EC80 acetylcholine response; for the purposes of the tables herein, an IC50 (inhibitory concentration 50) was calculated as a concentration-dependent decrease of the response elicited by an EC80 concentration of acetylcholine. Concentration-response curves were generated using a four-parameter logistical equation in XLFit curve fitting software (IDBS, Bridgewater, N.J.) for Excel (Microsoft, Redmond, Wash.) or Prism (GraphPad Software, Inc., San Diego, Calif.) or the Dotmatics software platform (Dotmatics, Bishop's Stortford, UK).
Compounds were synthesized as described above. Activity (IC50 and Emin) was determined in the mAChR M4 cell-based functional assay as described above and the data are shown in Table 2.

Row | remaining activity at 30 µM [%] | IC50 [nM] | Compound
1 | 2 | 11.1 | Cc1ccc(F)cc1-c1cc(C(F)(F)F)c(N[C@H]2C[C@@H]3CN(C[C@H]4CC5CCC4O5)C[C@@H]3C2)nn1 (stereo partly drawn) [Example 25, (3aR,5s,6aS)-2-(((2R)-7-oxabicyclo[2.2.1]heptan-2-yl)methyl)-N-(6-(5-fluoro-2-methylphenyl)-4-(trifluoromethyl)pyridazin-3-yl)octahydro-cyclopenta[c]pyrrol-5-amine]
2 | 4 | 19.4 | Cn1cc2cc(-c3cc(C(F)(F)F)c(N[C@H]4C[C@@H]5CN(C[C@@H]6CC7CCC6O7)C[C@@H]5C4)nn3)ccc2n1 (stereo partly drawn) [Example 26, (3aR,5s,6aS)-2-(((2S)-7-oxabicyclo[2.2.1]heptan-2-yl)methyl)-N-(6-(2-methyl-2H-indazol-5-yl)-4-(trifluoromethyl)pyridazin-3-yl)octahydro-cyclopenta[c]pyrrol-5-amine]
3 | 3 | 74.3 | Cn1cc2cc(-c3cc(C(F)(F)F)c(N[C@H]4C[C@@H]5CN(C[C@H]6CC7CCC6O7)C[C@@H]5C4)nn3)ccc2n1 (stereo partly drawn) [Example 27, (3aR,5s,6aS)-2-(((2R)-7-oxabicyclo[2.2.1]heptan-2-yl)methyl)-N-(6-(2-methyl-2H-indazol-5-yl)-4-(trifluoromethyl)pyridazin-3-yl)octahydro-cyclopenta[c]pyrrol-5-amine]
4 | 4 | 9.5 | Cc1ccc(F)cc1-c1cc(C(F)(F)F)c(N[C@H]2C[C@@H]3CN(CC4CCCOC4)C[C@@H]3C2)nn1 (stereo partly drawn) [Example 28, (3aR,5s,6aS)-N-(6-(5-fluoro-2-methylphenyl)-4-(trifluoromethyl)pyridazin-3-yl)-2-((tetrahydro-2H-pyran-3-yl)methyl)octahydro-cyclopenta[c]pyrrol-5-amine]
5 | 5 | 52.3 | Cc1ccc(F)cc1-c1cc(C(F)(F)F)c(N[C@H]2C[C@@H]3CN(CC4COCC4C)C[C@@H]3C2)nn1 (stereo partly drawn) [Example 29, (3aR,5s,6aS)-N-(6-(5-fluoro-2-methylphenyl)-4-(trifluoromethyl)pyridazin-3-yl)-2-((4-methyltetrahydro-furan-3-yl)methyl)octahydro-cyclopenta[c]pyrrol-5-amine]
6 | 4 | 55.6 | Cc1ccc(F)cc1-c1cc(C(F)(F)F)c(N[C@H]2C[C@@H]3CN(C[C@@H]4CCOC4)C[C@@H]3C2)nn1 [Example 30, (3aR,5s,6aS)-N-(6-(5-fluoro-2-methylphenyl)-4-(trifluoromethyl)pyridazin-3-yl)-2-(((S)-tetrahydrofuran-3-yl)methyl)octahydro-cyclopenta[c]pyrrol-5-amine]
7 | 5 | 130 | Cc1ccc(F)cc1-c1cc(C(F)(F)F)c(N[C@H]2C[C@@H]3CN(C[C@H]4CCOC4)C[C@@H]3C2)nn1 [Example 31, (3aR,5s,6aS)-N-(6-(5-fluoro-2-methylphenyl)-4-(trifluoromethyl)pyridazin-3-yl)-2-(((R)-tetrahydrofuran-3-yl)methyl)octahydro-cyclopenta[c]pyrrol-5-amine]
8 | 6 | 162 | Cn1cc2cc(-c3cc(C(F)(F)F)c(N[C@H]4C[C@@H]5CN(C[C@@H]6CCOC6)C[C@@H]5C4)nn3)ccc2n1 [Example 32, (3aR,5s,6aS)-N-(6-(2-methyl-2H-indazol-5-yl)-4-(trifluoro-methyl)pyridazin-3-yl)-2-(((S)-tetrahydrofuran-3-yl)methyl)octahydro-cyclopenta[c]pyrrol-5-amine]

Continued, compound first:

Row | Compound | remaining activity at 30 µM [%] | IC50 [nM]
9 | [2H]C([2H])(C1CCOCC1)N1C[C@H]2C[C@H](Nc3nnc(-c4cc(F)ccc4C)cc3C(F)(F)F)C[C@H]2C1 [Example 17, (3aR,5s,6aS)-N-(6-(5-fluoro-2-methylphenyl)-4-(trifluoro-methyl)pyridazin-3-yl)-2-((tetrahydro-2H-pyran-4-yl)methyl-d2)octahydro-cyclopenta[c]pyrrol-5-amine] | 3 | 11.3
10 | [2H]C([2H])(C1CCOCC1)N1C[C@H]2C[C@H](Nc3nnc(-c4ccc5nn(C)cc5c4)cc3C(F)(F)F)C[C@H]2C1 [Example 18, (3aR,5s,6aS)-N-(6-(2-methyl-2H-indazol-5-yl)-4-(trifluoro-methyl)pyridazin-3-yl)-2-((tetrahydro-2H-pyran-4-yl)methyl-d2)octahydro-cyclopenta[c]pyrrol-5-amine] | 3 | 29.8
11 | Cc1ccc(F)cc1-c1cc(C(F)(F)F)c(N[C@H]2C[C@@H]3CN(CC4COCCO4)C[C@@H]3C2)nn1 (stereo partly drawn) [Example 19, (3aR,5s,6aS)-2-((1,4-dioxan-2-yl)methyl)-N-(6-(5-fluoro-2-methylphenyl)-4-(trifluoromethyl)pyridazin-3-yl)octahydro-cyclopenta[c]pyrrol-5-amine] | 2 | 4.5
12 | Cn1cc2cc(-c3cc(C(F)(F)F)c(N[C@H]4C[C@@H]5CN(CC6COCCO6)C[C@@H]5C4)nn3)ccc2n1 (stereo partly drawn) [Example 20, (3aR,5s,6aS)-2-((1,4-dioxan-2-yl)methyl)-N-(6-(2-methyl-2H-indazol-5-yl)-4-(trifluoromethyl)pyridazin-3-yl)octahydro-cyclopenta[c]pyrrol-5-amine] | 3 | 25.1
13 | Cc1ccc(F)cc1-c1cc(C(F)(F)F)c(N[C@H]2C[C@@H]3CN(C[C@@H]4COCCO4)C[C@@H]3C2)nn1 [Example 21, (3aR,5s,6aS)-2-(((R)-1,4-dioxan-2-yl)methyl)-N-(6-(5-fluoro-2-methylphenyl)-4-(trifluoromethyl)pyridazin-3-yl)octahydro-cyclopenta[c]pyrrol-5-amine] | 3 | 31.2
14 | Cc1ccc(F)cc1-c1cc(C(F)(F)F)c(N[C@H]2C[C@@H]3CN(C[C@H]4COCCO4)C[C@@H]3C2)nn1 [Example 22, (3aR,5s,6aS)-2-(((S)-1,4-dioxan-2-yl)methyl)-N-(6-(5-fluoro-2-methylphenyl)-4-(trifluoromethyl)pyridazin-3-yl)octahydro-cyclopenta[c]pyrrol-5-amine] | 3 | 2.7
15 | Cc1ccc(F)cc1-c1cc(C(F)(F)F)c(N[C@H]2C[C@@H]3CN(CC4(F)CCOCC4)C[C@@H]3C2)nn1 [Example 23, (3aR,5s,6aS)-N-(6-(5-fluoro-2-methylphenyl)-4-(trifluoromethyl)pyridazin-3-yl)-2-((4-fluorotetrahydro-2H-pyran-4-yl)methyl)octahydro-cyclopenta[c]pyrrol-5-amine] | 3 | 23.7
16 | Cc1ccc(F)cc1-c1cc(C(F)(F)F)c(N[C@H]2C[C@@H]3CN(C[C@@H]4CC5CCC4O5)C[C@@H]3C2)nn1 (stereo partly drawn) [Example 24, (3aR,5s,6aS)-2-(((2S)-7-oxabicyclo[2.2.1]heptan-2-yl)methyl)-N-(6-(5-fluoro-2-methylphenyl)-4-(trifluoromethyl)pyridazin-3-yl)octahydro-cyclopenta[c]pyrrol-5-amine] | 3 | 7
